# Experimental data taken from patent publication US20100035756A1, “TRIAZOLOPHYRIDINE DERIVATIVES AS HERBICIDES” (SYNGENTA LIMITED, priority 2006, published 2010).
# Assays:
# Type in all cases: in vivo
# Nasturtium officinale = experiment: Microscreen (pre-emergence), Example B3; settings: preemergent application, 250 g/ha, evaluated 8 days later, 100%=total damage
# Amaranthus retroflexus = experiment: Microscreen (pre-emergence), Example B3; settings: preemergent application, 250 g/ha, evaluated 8 days later, 100%=total damage
# Solanum nigrum = experiment: Microscreen (pre-emergence), Example B3; settings: preemergent application, 250 g/ha, evaluated 8 days later, 100%=total damage
# Setaria italica = experiment: Microscreen (pre-emergence), Example B3; settings: preemergent application, 250 g/ha, evaluated 8 days later, 100%=total damage
# [1] = tested on: Monocotyledonous and dicotyledonous test plants; experiment: Herbicidal action prior to emergence of the plants (pre-emergence action), Example B1; settings: preemergence application, 250 g/ha, evaluated after 4 weeks, 100%=total damage, 0%=no damage
# How it was run: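 Monocot and dicot species were sown in standard soil and sprayed pre-emergence, right after sowing, at 250 g/ha as an aqueous suspension or emulsion. Plants were grown in a greenhouse for 4 weeks. Damage was scored from 0% (none) to 100% (total).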
# Digitaria sanguinalis = experiment: Microscreen (pre-emergence), Example B3; settings: preemergent application, 250 g/ha, evaluated 8 days later, 100%=total damage
# [2] = tested on: Monocotyledonous and dicotyledonous test plants; experiment: Herbicidal action after emergence of the plants (post-emergence herbicidal action), Example B2; settings: postemergent application, 125 g/ha, 2- to 3-leaf stage, evaluated after 2-3 weeks, 100%=total damage
# How it was run: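 Sprayed at 2- to 3-leaf stage as aqueous suspension (wettable powder) or emulsion (emulsifiable concentrate) at 125 g/ha; plants grown on in greenhouse. Damage scored after 2–3 weeks (100% = total damage, 0% = none).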
# Stellaria media = experiment: Microscreen (pre-emergence), Example B3; settings: preemergent application, 250 g/ha, evaluated 8 days later, 100%=total damage
# Agrostis tenuis = experiment: Microscreen (pre-emergence), Example B3; settings: preemergent application, 250 g/ha, evaluated 8 days later, 100%=total damage
structure (smiles),measurement,setting,value
CCCC1CCC(=O)C(C(=O)c2ccc(C(F)(F)F)n3c(C)nnc23)=C1O (centres unmarked) [41.6],"herbicidal damage, Nasturtium",Nasturtium officinale,100%
same,"herbicidal damage, Amaranthus",Amaranthus retroflexus,100%
same,"herbicidal damage, Solanum",Solanum nigrum,90%
same,"herbicidal damage, Setaria",Setaria italica,0%
same,"herbicidal damage, ABUTH",[1]; ABUTH,70%
same,"herbicidal damage, AMARE",[1]; AMARE,100%
same,"herbicidal damage, BRAPL",[1]; BRAPL,60%
same,"herbicidal damage, DIGSA",[1]; DIGSA,90%
same,"herbicidal damage, ECHCG",[1]; ECHCG,70%
same,"herbicidal damage, SETFA",[1]; SETFA,70%
same,"herbicidal damage, STEME",[1]; STEME,50%
same,"herbicidal damage, VERPE",[1]; VERPE,50%
same,"herbicidal damage, Digitaria",Digitaria sanguinalis,90%
same,"herbicidal damage, ABUTH",[2]; ABUTH,80%
same,"herbicidal damage, AMARE",[2]; AMARE,80%
same,"herbicidal damage, CHEAL",[2]; CHEAL,80%
same,"herbicidal damage, DIGSA",[2]; DIGSA,80%
same,"herbicidal damage, SETFA",[2]; SETFA,70%
same,"herbicidal damage, SINAR",[2]; SINAR,80%
same,"herbicidal damage, VERPE",[2]; VERPE,80%
same,"herbicidal damage, XANST",[2]; XANST,80%
same,"herbicidal damage, Stellaria",Stellaria media,80%
same,"herbicidal damage, Agrostis",Agrostis tenuis,100%
